Data on 7 compounds can be found in publication PMC6280375 (The Journal of Venomous Animals and Toxins Including …, 2018).

For the assay, the system named is BjussuLAAO-II. As to conditions: read-out: Km (mM) / Mean ± SD; 0.1 M HEPES pH 7, 45 °C, 2 mM OPD, 1 U/mL HRP.

Each structure is given as a SMILES string.

Take `NC(=O)CC[C@H](N)C(=O)O` [Gln]: the Km was found to be 3.2 ± 0.3 mM. In the case of `N[C@@H](Cc1cnc[nH]1)C(=O)O` [His], the Km was 14.1 ± 1.9 mM.

For the compound `CC[C@H](C)[C@H](N)C(=O)O` [Ile], the Km stood at 2 ± 0.1 mM.

For `CC(C)C[C@H](N)C(=O)O` [Leu], the Km is 0.3 mM. As for `CSCC[C@H](N)C(=O)O` [Met], the Km was found to be 0.6 ± 0.1 mM. Consider `N[C@@H](Cc1ccccc1)C(=O)O` [Phe], for which the Km stood at 0.1 mM. As to `N[C@@H](Cc1ccc(O)cc1)C(=O)O` [Tyr], the Km stood at 1.1 ± 0.1 mM.
